Patent publication US6417187B2, “1,2,4-triazole based compounds that can be used as insecticides or acaricides and processes” (Dow AgroSciences LLC, priority 2000, dated 2002)

Assays:
Type in all cases: in vivo
[1] = tested on: beet armyworm (Spodoptera exigua); assay: Insecticidal test for beet armyworm (treated lepidopteran diet)
[2] = tested on: cabbage looper (Trichoplusia ni); assay: Insecticidal test for cabbage looper (cabbage leaf-disc dip)
[3] = tested on: Sweetpotato Whitefly (Bemisia tabacia); assay: Insecticidal test for Sweetpotato Whitefly (cotton plant spray)
[4] = tested on: tobacco budworm (Heliothis virescens); assay: Insecticidal test for tobacco budworm (cotton cotyledon leaf-disc dip)
[5] = tested on: Brown Planthopper (Nilaparvata lugens); assay: Insecticidal test for Brown Planthopper (rice seedling roots in test solution)
[6] = tested on: cotton aphid (Aphis gossvpii); assay: Insecticidal test for cotton aphid (squash cotyledon spray)
[7] = tested on: Green Leafhopper (Nephotettix cincticeps); assay: Insecticidal test for Green Leafhopper (rice seedling roots in test solution)
[8] = tested on: two-spotted spider mite (Tetranychus urticae); assay: Insecticidal test for two-spotted spider mite, ovicide method; details: 2.5 ppm (table footnote), ovicide method on cotton leaf discs, 6 days
[9] = 400 ppm, treated diet, second-instar larvae, 5 days
[10] = 400 ppm, cabbage leaf-dip, 2nd instar larvae, 5 days
[11] = 200 ppm spray on cotton plants, 13 days, reduction of large nymphs
[12] = 400 ppm, cotton cotyledon leaf-dip, 2nd instar larvae, 5 days
[13] = 10 ppm test solution, rice seedling roots, 3rd instar nymphs, mortality at 6 days
[14] = 50 ppm spray on infested squash cotyledons, 3 days, population reduction versus untreated

Structure (SMILES): Cn1nc(-c2c(F)cccc2Cl)nc1-c1sc(C#Cc2ccccc2F)c(Cl)c1Cl [Compound 9]
- BAW: activity at 400 ppm against beet armyworm (% Control rating) [1, 9]: B (80-89)
- CL: activity at 400 ppm against cabbage looper (% Control rating) [2, 10]: A (90-100)
- WF: activity at 200 ppm against whitefly (% Control rating) [3, 11]: F (less than 50)
- TBW: activity at 400 ppm against tobacco budworm (% Control rating) [4, 12]: A (90-100)
- BPH: activity at 10 ppm against brown planthopper (% Control rating) [5, 13]: F (less than 50)

Structure (SMILES): CCCc1ccc(C#Cc2sc(-c3nc(-c4c(F)cccc4Cl)nn3C)c(Cl)c2Cl)cc1 [Compound 14]
- BAW: activity at 400 ppm against beet armyworm (% Control rating) [1, 9]: A (90-100)
- CL: activity at 400 ppm against cabbage looper (% Control rating) [2, 10]: A (90-100)
- WF: activity at 200 ppm against whitefly (% Control rating) [3, 11]: F (less than 50)
- CA: activity at 50 ppm against cotton aphid (% Control rating) [6, 14]: A (90-100)
- TBW: activity at 400 ppm against tobacco budworm (% Control rating) [4, 12]: A (90-100)
- BPH: activity at 10 ppm against brown planthopper (% Control rating) [5, 13]: F (less than 50)

Structure (SMILES): CCCOc1ccc(C#Cc2sc(-c3nc(-c4c(F)cccc4Cl)nn3C)c(Cl)c2Cl)cc1 [Compound 15]
- BAW: activity at 400 ppm against beet armyworm (% Control rating) [1, 9]: D (60-69)
- GLH: activity at 10 ppm against green leafbopper (% Control rating) [7, 13]: F (less than 50)
- CL: activity at 400 ppm against cabbage looper (% Control rating) [2, 10]: D (60-69)
- WF: activity at 200 ppm against whitefly (% Control rating) [3, 11]: F (less than 50)
- CA: activity at 50 ppm against cotton aphid (% Control rating) [6, 14]: D (60-69)
- TBW: activity at 400 ppm against tobacco budworm (% Control rating) [4, 12]: F (less than 50)
- BPH: activity at 10 ppm against brown planthopper (% Control rating) [5, 13]: F (less than 50)

Structure (SMILES): Cn1nc(-c2c(F)cccc2Cl)nc1-c1sc(C#Cc2ccc(F)c(C(F)(F)F)c2)c(Cl)c1Cl [Compound 47]
- BAW: activity at 400 ppm against beet armyworm (% Control rating) [1, 9]: A (90-100)
- CL: activity at 400 ppm against cabbage looper (% Control rating) [2, 10]: A (90-100)
- CA: activity at 50 ppm against cotton aphid (% Control rating) [6, 14]: C (70-79)
- TBW: activity at 400 ppm against tobacco budworm (% Control rating) [4, 12]: A (90-100)
- BPH: activity at 10 ppm against brown planthopper (% Control rating) [5, 13]: F (less than 50)

Structure (SMILES): CCOc1ccc(C#Cc2sc(-c3nc(-c4c(F)cccc4Cl)nn3C)c(Cl)c2Cl)cc1C(F)(F)F [Compound 49]
- BAW: activity at 400 ppm against beet armyworm (% Control rating) [1, 9]: A (90-100)
- CL: activity at 400 ppm against cabbage looper (% Control rating) [2, 10]: A (90-100)
- WF: activity at 200 ppm against whitefly (% Control rating) [3, 11]: F (less than 50)
- CA: activity at 50 ppm against cotton aphid (% Control rating) [6, 14]: F (less than 50)
- TBW: activity at 400 ppm against tobacco budworm (% Control rating) [4, 12]: D (60-69)
- BPH: activity at 10 ppm against brown planthopper (% Control rating) [5, 13]: F (less than 50)

Structure (SMILES): Cc1cc(F)ccc1C#Cc1sc(-c2nc(-c3c(F)cccc3Cl)nn2C)c(Cl)c1Cl [Compound 52]
- BAW: activity at 400 ppm against beet armyworm (% Control rating) [1, 9]: A (90-100)
- CL: activity at 400 ppm against cabbage looper (% Control rating) [2, 10]: A (90-100)
- WF: activity at 200 ppm against whitefly (% Control rating) [3, 11]: F (less than 50)
- CA: activity at 50 ppm against cotton aphid (% Control rating) [6, 14]: D (60-69)
- TBW: activity at 400 ppm against tobacco budworm (% Control rating) [4, 12]: A (90-100)

Structure (SMILES): CCCCCCc1ccc(C#Cc2sc(-c3nc(-c4c(F)cccc4Cl)nn3C)c(Cl)c2Cl)cc1 [Compound 54]
- BAW: activity at 400 ppm against beet armyworm (% Control rating) ([1]; in vivo): A (key: A: 90-100; B: 80-89; C: 70-79; D: 60-69; E: 50-59; F: less than 50; G: inactive)
- GLH: activity at 10 ppm against green leafbopper (% Control rating) ([7]; in vivo): F (key: A: 90-100; B: 80-89; C: 70-79; D: 60-69; E: 50-59; F: less than 50; G: inactive)
- CL: activity at 400 ppm against cabbage looper (% Control rating) ([2]; in vivo): B (key: A: 90-100; B: 80-89; C: 70-79; D: 60-69; E: 50-59; F: less than 50; G: inactive)
- WF: activity at 200 ppm against whitefly (% Control rating) ([3]; in vivo): F (key: A: 90-100; B: 80-89; C: 70-79; D: 60-69; E: 50-59; F: less than 50; G: inactive)
- CA: activity at 50 ppm against cotton aphid (% Control rating) ([6]; in vivo): E (key: A: 90-100; B: 80-89; C: 70-79; D: 60-69; E: 50-59; F: less than 50; G: inactive)
- TBW: activity at 400 ppm against tobacco budworm (% Control rating) ([4]; in vivo): A (key: A: 90-100; B: 80-89; C: 70-79; D: 60-69; E: 50-59; F: less than 50; G: inactive)
- BPH: activity at 10 ppm against brown planthopper (% Control rating) ([5]; in vivo): F (key: A: 90-100; B: 80-89; C: 70-79; D: 60-69; E: 50-59; F: less than 50; G: inactive)

Structure (SMILES): CCCCCCCc1ccc(C#Cc2sc(-c3nc(-c4c(F)cccc4Cl)nn3C)c(Cl)c2Cl)cc1 [Compound 55]
- BAW: activity at 400 ppm against beet armyworm (% Control rating) ([1]; in vivo): A (key: A: 90-100; B: 80-89; C: 70-79; D: 60-69; E: 50-59; F: less than 50; G: inactive)
- GLH: activity at 10 ppm against green leafbopper (% Control rating) ([7]; in vivo): F (key: A: 90-100; B: 80-89; C: 70-79; D: 60-69; E: 50-59; F: less than 50; G: inactive)
- CL: activity at 400 ppm against cabbage looper (% Control rating) ([2]; in vivo): A (key: A: 90-100; B: 80-89; C: 70-79; D: 60-69; E: 50-59; F: less than 50; G: inactive)
- WF: activity at 200 ppm against whitefly (% Control rating) ([3]; in vivo): F (key: A: 90-100; B: 80-89; C: 70-79; D: 60-69; E: 50-59; F: less than 50; G: inactive)
- CA: activity at 50 ppm against cotton aphid (% Control rating) ([6]; in vivo): F (key: A: 90-100; B: 80-89; C: 70-79; D: 60-69; E: 50-59; F: less than 50; G: inactive)
- TBW: activity at 400 ppm against tobacco budworm (% Control rating) ([4]; in vivo): D (key: A: 90-100; B: 80-89; C: 70-79; D: 60-69; E: 50-59; F: less than 50; G: inactive)
- BPH: activity at 10 ppm against brown planthopper (% Control rating) ([5]; in vivo): F (key: A: 90-100; B: 80-89; C: 70-79; D: 60-69; E: 50-59; F: less than 50; G: inactive)

Structure (SMILES): CCCCCCCOc1ccc(C#Cc2sc(-c3nc(-c4c(F)cccc4Cl)nn3C)c(Cl)c2Cl)cc1 [Compound 56]
- BAW: activity at 400 ppm against beet armyworm (% Control rating) [1, 9]: A (90-100)
- CL: activity at 400 ppm against cabbage looper (% Control rating) [2, 10]: A (90-100)
- WF: activity at 200 ppm against whitefly (% Control rating) [3, 11]: F (less than 50)
- CA: activity at 50 ppm against cotton aphid (% Control rating) [6, 14]: E (50-59)
- TBW: activity at 400 ppm against tobacco budworm (% Control rating) [4, 12]: A (90-100)
- BPH: activity at 10 ppm against brown planthopper (% Control rating) [5, 13]: F (less than 50)

Structure (SMILES): CCCc1ccc(C#Cc2cc(C)c(-c3nc(-c4c(F)cccc4Cl)nn3C)s2)cc1 [Compound 72]
- BAW: activity at 400 ppm against beet armyworm (% Control rating) [1, 9]: A (90-100)
- CL: activity at 400 ppm against cabbage looper (% Control rating) [2, 10]: B (80-89)
- WF: activity at 200 ppm against whitefly (% Control rating) [3, 11]: F (less than 50)
- CA: activity at 50 ppm against cotton aphid (% Control rating) [6, 14]: C (70-79)
- SM: activity at 2.5 ppm against two-spotted spider mite (% Control rating) [8]: F (less than 50)
- BPH: activity at 10 ppm against brown planthopper (% Control rating) [5, 13]: F (less than 50)

Structure (SMILES): CCCc1ccc(C#Cc2sc(-c3nc(-c4c(F)cccc4Cl)nn3CC)c(Cl)c2Cl)cc1 [Compound 81]
- BAW: activity at 400 ppm against beet armyworm (% Control rating) [1, 9]: A (90-100)
- CL: activity at 400 ppm against cabbage looper (% Control rating) [2, 10]: D (60-69)
- WF: activity at 200 ppm against whitefly (% Control rating) [3, 11]: F (less than 50)
- CA: activity at 50 ppm against cotton aphid (% Control rating) [6, 14]: F (less than 50)
- TBW: activity at 400 ppm against tobacco budworm (% Control rating) [4, 12]: F (less than 50)

Structure (SMILES): CCCCC#Cc1cncc(-c2nc(-c3c(Cl)cncc3Cl)nn2C)c1 [Compound 86]
- GLH: activity at 10 ppm against green leafbopper (% Control rating) [7, 13]: F (less than 50)
- WF: activity at 200 ppm against whitefly (% Control rating) [3, 11]: F (less than 50)
- CA: activity at 50 ppm against cotton aphid (% Control rating) [6, 14]: E (50-59)
- SM: activity at 2.5 ppm against two-spotted spider mite (% Control rating) [8]: C (70-79)
- BPH: activity at 10 ppm against brown planthopper (% Control rating) [5, 13]: F (less than 50)

Structure (SMILES): COc1ccc(C#Cc2sc(-c3nc(-c4c(Cl)cncc4Cl)nn3C)c(Cl)c2Cl)cc1 [Compound 87]
- BAW: activity at 400 ppm against beet armyworm (% Control rating) [1, 9]: F (less than 50)
- CL: activity at 400 ppm against cabbage looper (% Control rating) [2, 10]: F (less than 50)
- TBW: activity at 400 ppm against tobacco budworm (% Control rating) [4, 12]: F (less than 50)

Structure (SMILES): Cn1nc(-c2c(F)cccc2Cl)nc1-c1ccc(C#Cc2ccc(C(F)(F)F)cc2)c(Cl)c1Cl [Compound 94, 1-Methyl-3-(2-Chloro-6-fluorophenyl)-5-(2,3-dichloro-4-(2-(4-trifluoromethyl)phenyl)-ethynyl-phenyl)-1 H[1,2,4]triazole]
- pest or weed control at 400 ppm ([1]; Spodoptera exigua, 120 h, 400 ppm, treated diet, second-instar larvae, 5 days, read-out: BAW: activity at 400 ppm against beet armyworm (% Control rating)): 90 to 100%
- pest or weed control at 400 ppm ([2]; Trichoplusia ni, 120 h, 400 ppm, cabbage leaf-dip, 2nd instar larvae, 5 days, read-out: CL: activity at 400 ppm against cabbage looper (% Control rating)): 90 to 100%
- pest or weed control at 200 ppm ([3]; Bemisia, 312 h, 200 ppm spray on cotton plants, 13 days, reduction of large nymphs, read-out: WF: activity at 200 ppm against whitefly (% Control rating)): < 50%
- pest or weed control at 50 ppm ([6]; 72 h, 50 ppm spray on infested squash cotyledons, 3 days, population reduction versus untreated, read-out: CA: activity at 50 ppm against cotton aphid (% Control rating)): 80 to 89%
- pest or weed control at 400 ppm ([4]; Heliothis virescens, 120 h, 400 ppm, cotton cotyledon leaf-dip, 2nd instar larvae, 5 days, read-out: TBW: activity at 400 ppm against tobacco budworm (% Control rating)): 60 to 69%
